Test results as given in PMC12040169 (PLOS Biology, 2025).

Experiment: in vitro
Details: human, hela cells, % viability

| Structure (SMILES) | viability at 28.5 h, 10 µM (bulk resorufin, single well) [%] | viability at 28.5 h, 10 µM [%] |
| --- | --- | --- |
| COc1ccc(CCNCc2ccc([N+](=O)[O-])cc2)cc1OC [CBK262217] | 115 | – |
| N=C(N)NCCCc1c[nH]c2ccccc12 [CBK012139G] | – | 101 |
| CSc1nc(O)cc(C(F)(F)F)n1 [CBK001401] | – | 112 |
| Nn1cnn2c(SCC(=O)c3cccs3)nnc12 [CBK263184] | – | 105 |
| N#Cc1ccc(CN2CCN(S(=O)(=O)c3ccc(-n4cnc(Cl)c4Cl)cc3)CC2)cc1 [CBK062972] | – | 104 |
| CCc1nnc(NC(=O)c2cccc(F)c2)s1 [CBK273362] | – | 90.4 |
| COc1cc(S(=O)(=O)NCCOc2ccc(C(=O)O)cc2)c(OC)cc1Cl [CBK299825] | – | 92.1 |
| CC#CC1CCCC2N(c3ccccc3)CCN12 (centres unmarked) [CBK028191] | – | 119 |
| CSc1cc(C)c2c(c1)COC1(CCN(CC3CC3)CC1)O2 [CBK061383] | – | 94.1 |
| O=S(=O)(NCC(c1ccccc1)N1CCNCC1)c1ccccc1 (centres unmarked) [CBK262813] | – | 105 |
| CN1C(=O)COc2ccccc2CCCC[C@@H]2[C@H]1CCCN2C(=O)CCCn1cccn1 [CBK292090] | – | 111 |
| CS(=O)(=O)c1ccc(-c2cccc(COC3CCN(C(=O)Cc4ccc(F)cc4F)CC3)c2)cc1 [CBK149506] | – | 87.8 |
| CCOC(=O)CCNC(=O)/C=C/c1ccc(C(C)C)cc1 [CBK149643] | – | 102 |
| O=C(N/N=C/c1ccncc1)C1CC1C(=O)N/N=C/c1ccncc1 (centres unmarked) [CBK261115] | – | 90.2 |
| CC(C)(C)OC(=O)N1CCN(C(=O)N[C@@H](Cc2ccccc2)C(=O)O)CC1 [CBK286785] | – | 113 |
| CCOC(=O)C1CCCN(Cc2ccc(OC)cc2)C1 (centres unmarked) [CBK304413] | – | 88.3 |
| O=C(Cc1c[nH]c(=O)[nH]c1=O)Nc1ncc(Cc2ccc(F)cc2)s1 [CBK285674] | – | 103 |
| Cc1ccccc1NC(=O)c1c(NC(=O)Cc2ccccc2)sc2c1CCCC2 [CBK262572] | – | 108 |
| Cc1nc2c(c(=O)[nH]1)CN(Cc1cccc(Oc3ccccc3)c1)CC2 [CBK283951] | – | 104 |
| O=C(N1CCC(Oc2nccnc2OCc2ccc(Cl)cc2F)CC1)C(F)(F)F [CBK164142] | – | 89.5 |
| N=c1c2c(-c3ccccc3)c(-c3ccccc3)n(Cc3ccco3)c2ncn1CCN1CCOCC1 [CBK268545] | – | 93.5 |
| CC(=O)Nc1ccc(S(=O)(=O)N2CCN(C(=O)COc3ccc4ccccc4c3)CC2)cc1 [CBK264164] | – | 103 |
| Cc1sc(NC(=S)NC(=O)C2CCCCC2)c(C(N)=O)c1C [CBK266273] | – | 97.3 |

| Structure (SMILES) | viability at 28.5 h, 10 µM (bulk resorufin, single well) [%] | viability at 28.5 h, 10 µM [%] |
| --- | --- | --- |
| COC(=O)CCn1c(=O)c2c(nc3oc(C(C)(C)C)cn32)n(C)c1=O [CBK306034] | – | 87.7 |
| O=C(NCCNc1ccc([N+](=O)[O-])cc1Cl)c1ccccc1Cl [CBK263541] | – | 112 |
| COc1ccccc1N1CCN(CC(=O)NC2CC3CCC2C3)CC1 (centres unmarked) [CBK269162] | – | 94.8 |
| Cc1cc(-c2ccccc2)sc1C(=O)/C=C(\O)C(=O)O [CBK263198] | – | 100 |
| Fc1ccc(OCCNCCC2NCCc3c2[nH]c2ccccc32)cc1 (centres unmarked) [CBK066970] | – | 97.6 |
| N#Cc1ccccc1Cn1cc(C(=O)C(N)=O)c2ccccc21 [CBK269862] | – | 93.5 |
| Cc1nn(C)c(C)c1CCn1cncc1-c1ccc2c(c1)CC(C)N2C (centres unmarked) [CBK281788] | – | 76 |
| CN1CCN(c2ccc(NC(=S)NC(=O)c3cc4ccccc4o3)cc2)CC1 [CBK266240] | – | 95.5 |
| CC(=O)c1cnc2cc(-c3ccc(Cl)cc3)nn2c1C [CBK051484] | – | 107 |
| Cc1ccc(CNC(=O)c2ccc3c(c2)NC(=O)C(N2CCCC2)S3)cc1 (centres unmarked) [CBK071788] | – | 84.6 |
| COc1cc(-c2cnc3cccnc3c2N)cc(OC)c1OC [CBK081190] | – | 93.1 |
| CCOCCCNC(=O)c1ncoc1-c1ccc(F)cc1 [CBK282353] | – | 92.6 |
| CCC(C)CS(=O)(=O)c1nc(C)c(C)n1CC1CCCO1 (centres unmarked) [CBK305107] | – | 114 |
| Cc1nn(CC(=O)OC2CCCCC2)c(=O)c2cc3ccsc3n12 [CBK284058] | – | 82.5 |
| O=C(CCN1CCOCC1)NNC(=O)Nc1cccc(C(F)(F)F)c1 [CBK269017] | – | 104 |
| O=C(Nc1nnc(C2=COCCO2)o1)c1ccc(-c2ccccc2)cc1 [CBK287407] | – | 84.5 |
| COc1ccc(Cl)cc1N1CCN(Cc2ncc[nH]2)CC1 [CBK126418] | – | 98.1 |
| CCOc1ccc(S(=O)(=O)N(C)c2ccc(OCC(=O)O)cc2)cc1 [CBK296119] | – | 102 |
| COc1ccc(-n2ncc3c2CC(C)(C)CC3NS(C)(=O)=O)cc1 (centres unmarked) [CBK306759] | – | 88.7 |
| Cc1ccc(Cl)cc1NC(=O)c1cc(NC(=O)C2C3C=CC(C3)C2C(=O)O)ccc1N1CCCCC1 (centres unmarked) [CBK268194] | – | 85.9 |
| O=C1c2ccccc2S(=O)(=O)N1c1ccc(F)cc1 [CBK113194] | – | 112 |
| Cc1ccc(C(=O)O)cc1NC(=O)c1cccc(C(=O)Nc2cc(C(=O)O)ccc2C)c1 [CBK262797] | – | 97.5 |
| Cc1ccc(OCC(=O)O/N=C(\N)Cc2ccc([N+](=O)[O-])cc2)c(C)c1 [CBK263102] | – | 101 |

| Structure (SMILES) | viability at 28.5 h, 10 µM (bulk resorufin, single well) [%] | viability at 28.5 h, 10 µM [%] |
| --- | --- | --- |
| CCN(Cc1ccncc1)C(=O)NCc1ccc(F)cc1 [CBK155146] | – | 96.4 |
| COc1ccc(CCNC(=O)c2cnc(-c3ccc(Cl)cc3)c(-c3cccc(CNC(C)=O)c3)c2)cc1OC [CBK164413] | – | 95 |
| O=C(Nc1ccc(S(=O)(=O)Nc2cncs2)cc1)c1ccc(-c2cccc(C(F)(F)F)c2)o1 [CBK266625] | – | 89 |
| Nc1nonc1-n1nncc1CN1CCCCC1 [CBK307045] | – | 86.9 |
| COc1cncc(C(NC(=O)Cn2ccccc2=O)[C@H]2C[C@@H](O)C2)c1 (some centres unmarked) [CBK307557] | – | 92.5 |
| CC(C)(C)C1CCC(OC(=O)Cn2nnc3ccccc3c2=O)CC1 (centres unmarked) [CBK306408] | – | 88.9 |
| COc1ccccc1-c1nccnc1N1CCN(c2ccncc2)CC1 [CBK037081] | – | 87.8 |
| CC(=O)N1Cc2ccccc2OC2(CCCN(C(=O)C3CC3)C2)C1 (centres unmarked) [CBK284991] | – | 97.1 |
| O=C1NC(=O)N(c2cccc([N+](=O)[O-])c2)C(=O)/C1=C\c1ccccc1OCc1ccc(C(=O)O)cc1 [CBK265484] | 106 | – |
| O=c1[nH]cc(-c2ccccc2)cc1CNc1cccc2ncccc12 [CBK284771] | – | 77.1 |
| Clc1ccc(-c2nn[nH]n2)c(Cl)c1 [CBK018932] | – | 89.7 |
| CC(C)(C)OC(=O)NC1CCC(NCc2cc(F)cc(F)c2)CC1 (centres unmarked) [CBK056689] | – | 91.3 |
| CCN(CC)C(=O)c1ccsc1NS(=O)(=O)c1cc(Br)ccc1OC [CBK042327] | – | 103 |
| CCc1ccc(-c2csc(NC(=O)CN3C(=O)CCC3=O)n2)cc1 [CBK287347] | – | 90.3 |
| Cc1ccc2oc(=O)cc(N/N=C(\Cl)C(N)=S)c2c1 [CBK022357] | – | 85.8 |
| O=C(Cc1csc(-c2ccc(Cl)cc2)n1)Nc1cccnc1 [CBK107300] | – | 101 |
| O=C(O)[C@H]1CN(C(=O)CCc2ccco2)C[C@@H]1c1ccc(F)cc1 [CBK283722] | – | 86.5 |
| COc1ccc(CCNC(=O)c2ccccc2N(C)S(C)(=O)=O)cc1 [CBK266833] | – | 104 |
| FC(F)(F)c1nc2ccccc2nc1Sc1nc[nH]n1 [CBK093808] | – | 87.6 |
| CCOC(=O)N1CCN(C(=O)C2CC=CCC2C(=O)O)CC1 (centres unmarked) [CBK266142] | – | 104 |
| O=C(c1cc2c(s1)CCC2)N1CCC[C@H]1[C@H](O)c1nccs1 [CBK284287] | – | 92.5 |
| Cc1nc2sccn2c(=O)c1NC(=O)c1ccccn1 [CBK287665] | – | 87.2 |
| O=C(O)COc1ccc(NC(=O)c2ccc3c(c2)C(=O)N(CC2CCCO2)C3=O)cc1 (centres unmarked) [CBK263719] | – | 92.5 |

| Structure (SMILES) | viability at 28.5 h, 10 µM (bulk resorufin, single well) [%] | viability at 28.5 h, 10 µM [%] |
| --- | --- | --- |
| CCCOC(=O)Cn1cnc2sc(C)c(C)c2c1=O [CBK304371] | – | 88.9 |
| Cc1cc(NC(=O)CC2CCCCC2)nc2c1c(=O)oc1ccccc12 [CBK291151] | – | 90.6 |
| O=C1N[C@@]2(CC3CCC2CC3C(=O)N2CCCC2)Nc2ccccc21 (some centres unmarked) [CBK284449] | – | 91.8 |
| O=C(Nc1cccc(C(F)(F)F)c1)c1nc[nH]n1 [CBK027341] | – | 89.4 |
| CCCCNC(=O)CSc1ncccc1C(=O)NCc1cccnc1 [CBK071590] | – | 91 |
| CC1=C[C@@H](CO)[C@H](C(C)C)C[C@H]1CC(=O)NCc1cccnc1 [CBK289218] | – | 81.7 |
| Cc1ccc(OCC(=O)Nc2ncn(Cc3cccnc3)n2)cc1 [CBK304888] | – | 85 |
| CCCCN(C)S(=O)(=O)NCCc1cn2ccccc2n1 [CBK304543] | – | 101 |
| CC(NC(=O)C1(Cn2ccnc2)CC1)c1cccnc1 (centres unmarked) [CBK306812] | – | 97.3 |
| CC(C)(C)OC(=O)N1CCC2(CC1)OCc1cc(-c3cccc(C(=O)NCc4ccc(Cl)cc4)c3)ccc1O2 [CBK107834] | 93.3 | – |
| NC(=O)CC1Nc2cccc3cccc(c23)NC1=O (centres unmarked) [CBK267560] | – | 75 |
| O=C1CC2(CCN(C(=O)C3CCCC3)CC2)Oc2ccc(F)cc21 [CBK283686] | – | 80.2 |
| Cc1ncccc1-c1csc(C2CCCO2)n1 (centres unmarked) [CBK304121] | – | 117 |
| COC(=O)c1ccsc1NS(=O)(=O)c1cc(Br)ccc1OC [CBK039065] | – | 86.8 |
| CC(C)(CNC(=O)Cn1cc(C(=O)NC2CCCCC2)ccc1=O)c1cccc(F)c1 [CBK286110] | – | 88.4 |
| CCN(CC)Cc1c(O)ccc2occ(C(=O)c3cc(OC)ccc3OC)c12 [CBK261949] | – | 97 |
| COc1ccc(C)cc1CN(C)C(=O)c1cccc(NC(=O)C2CC2)c1 [CBK305414] | – | 98.5 |
| O=C(O)c1cc(NC(=O)c2ccc(NC(=O)c3ccco3)cc2)cc(C(=O)O)c1 [CBK265149] | – | 111 |
| Cc1ccc([N+](=O)[O-])cc1NC(=O)C1Cc2ccccc2CN1C(=O)OCc1ccccc1 (centres unmarked) [CBK262463] | – | 100 |
| COc1cc(-c2nccnc2NCc2ccc(OC(F)(F)F)cc2)cc(OC)c1OC [CBK038063] | – | 117 |
